Experimental data from patent US12509460B2 (Skyhawk Therapeutics, Inc., priority 2019, dated 2025).
Where two headings read alike, the source gives them in different places.

Key:
[1] = tested on: mHTT protein in GM04724 (CAG 70/20) Huntington's disease patient lymphoblast cells; experiment: mHTT protein assay, 2B7-MW1 assay via Mesoscale Discovery (MSD); type: cell-based, human
How it was run: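 Patient lymphoblasts treated 48 h with compound from 10 μM to 0.6 nM. mHTT quantified by MSD 2B7-MW1 immunoassay, whose signal depends on polyQ expansion and HTT size. Viability measured on a replicate plate by CellTiter Glo.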

[2] = tested on: SMN protein in spinal muscular atrophy (SMA) patient fibroblasts (GM03813, Coriell); experiment: SMN protein assay, Mesoscale Discovery (MSD); type: cell-based, human; settings: read-out: SMN2 protein EC50
How it was run: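 SMA patient fibroblasts (GM03813) seeded at 7000 cells/well and exposed to compound at 2.5 μM to 0.6 nM for 48 hours. Lysates assayed for SMN by MSD immunoassay, with absolute SMN amount calculated from a per-plate SMN standard curve (1 μg/ml to 19.5 pg/ml).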

MDR1 (P-gp) = experiment: Blood-brain-barrier (BBB) penetration potential via MDCK-MDR1 permeability assay; settings: dog; for Papp A→B at 120 min, 5 μM: MDCK-MDR1, pH 7.4, MDCK-MDR1: Papp A-B; for Papp B→A at 120 min, 5 μM: MDCK-MDR1, pH 7.4, MDCK-MDR1: Papp B-A
Protocol: (§1) Example A13: Assessment of Blood-Brain-Barrier (BBB) Penetration Potential Via an MDCK-MDR1 Permeability Assay
(§2) The permeability of compounds is assessed for BBB penetration potential by use of an MDCK-MDR1 assay (Catalog EA203) performed by Absorption Systems, Exton PA.
(§3) Experimental Procedure: MDR1-MDCK cell monolayers are grown to confluence on collagen-coated, microporous membranes in 12-well assay plates. The permeability assay buffer is Hanks' balanced salt solution containing 10 mM HEPES and 15 mM glucose at a pH of 7.4. The buffer in the receiver chamber also contained 1% bovine serum albumin. The dosing solution concentration is 5 μM of test article in the assay buffer. Cell monolayers are dosed on the apical side (A-to-B) or basolateral side (B-to-A) and incubated at 37° C. with 5% CO2 in a humidified incubator. Samples are taken from the donor and receiver chambers at 120 minutes. Each determination is performed in duplicate. The flux of lucifer yellow is also measured post-experimentally for each monolayer to ensure no damage is inflicted to the cell monolayers during the flux period. All samples are assayed by LC-MS/MS using electrospray ionization.
(§4) The apparent permeability (Papp) and percent recovery are calculated as follows:
(§5) Analytical Method: Liquid Chromatography. Column: Waters ACQUITY UPLC BEH Phenyl 30 ×2.1 mm, 1.7 μm; M.P. Buffer. 25 mM ammonium formate buffer, pH 3.5; Aqueous Reservoir (A): 90% water, 10% buffer, Organic Reservoir (B): 90% acetonitrile, 10% buffer, Flow Rate: 0.7 mL/minute; Gradient Program:
(§6) • Total Run Time: 1.00 minute • Autosampler. 2 μL injection volume • Wash1: water/methanol/2-propanol:1/1/1; with 0.2% formic acid • Wash2: 0.1% formic acid in water • Brain Penetration • Potential Classification: A-B Papp≥3.0 and Efflux Ratio <3.0: High • A-B Papp≥3.0 and 10≥Efflux Ratio >3.0: Moderate • A-B Papp≥3.0 and Efflux Ratio≥10: Low • A-B Papp<3.0: Low

MDR1 = experiment: as above; settings: dog, MDCK-MDR1, pH 7.4, MDCK-MDR1: Efflux
Protocol: as §1, §2, §3, §4, §5, §6

[3] = tested on: MDR1-MDCK cell monolayers; experiment: as above
Protocol: as §1, §2, §3, §4, §5, §6

[4] = tested on: SMN FL and SMN Δ7 in spinal muscular atrophy (SMA) patient fibroblasts (GM03813, Coriell); experiment: Quantitative splicing assay (SMN), qPCR; type: cell-based, human; settings: read-out: SMN2 Splicing FL EC50
Protocol: Spinal muscular atrophy (SMA) patient fibroblasts (GM03813, Coriell) are plated in 96-well plates at 50,000 cells/well. […] Treated cells are lysed and cDNA synthesized using the Fast Advanced Cells-to-Ct kit (Thermofisher A35378) according to the manufacturer's instructions. 2 μL of each cDNA are used in qPCR reactions. […] Reactions are run in a Quant Studio 6 qPCR instrument with default settings.

[5] = GM04724 Huntington's disease patient lymphoblasts
[6] = SMA patient fibroblasts GM03813, 48 hours, MSD
[7] = GM04724 (CAG 70/20) Huntington's disease patient lymphoblasts
[8] = SMA patient fibroblasts (GM03813), 48 hours
[9] = Homo sapiens, Fibroblast, 24 h, SMA patient fibroblasts (GM03813), 24 h
[10] = Homo sapiens, Fibroblast, 24 h, SMA patient fibroblasts GM03813, 24 h, qPCR

SMILES | EC50 [1, 5] [nM] | EC50 [2, 6] [nM] | Papp A→B at 120 min, 5 μM (MDR1 (P-gp); A-B direction) [×10⁻⁶ cm/s] | Papp B→A at 120 min, 5 μM (MDR1 (P-gp); B-A direction) [×10⁻⁶ cm/s] | efflux ratio at 120 min, 5 μM (MDR1; efflux ratio) | MDCK-MDR1: % Recov A-B ([3]; A-B direction) [%] | MDCK-MDR1: % Recov B-A ([3]; B-A direction) [%] | EC50 ([4]; SMA patient fibroblasts GM03813, 24 h, qPCR) [nM] | EC50 [1, 7] [nM] | EC50 [2, 8] [nM] | Papp A→B at 120 min, 5 μM (MDR1 (P-gp); A-B) [×10⁻⁶ cm/s] | Papp B→A at 120 min, 5 μM (MDR1 (P-gp); B-A) [×10⁻⁶ cm/s] | efflux ratio at 120 min, 5 μM (MDR1) | MDCK-MDR1: % Recov A-B ([3]; A-B) [%] | MDCK-MDR1: % Recov B-A ([3]; B-A) [%] | EC50 [4, 9] [nM] | EC50 [4, 10] [nM] | mHTT protein EC50 [1, 5]
COc1cc(-c2ccc(-c3ccc(N(C)[C@H]4CC5N[C@@H](C4)CC5(F)F)nn3)c(O)c2)cnn1 (single isomer, unassigned) [Compound 2A] | 16 to 50 | 16 to 50 | 11.3 | 39 | 3 | 54 | 81 | 16 to 50 | – | – | – | – | – | – | – | – | – | –
Cc1cc(=O)c2cc(O)c(-c3ccc(N(C)[C@H]4C[C@@H]5CC[C@H]([C@H]4F)N5C)nn3)cc2o1 [Compound 99B, 7-(6-(((1R,2R,3S,5S)-2-fluoro-8-methyl-8-azabicyclo[3.2.1]octan-3-yl)(methyl)amino)pyridazin-3-yl)-6-hydroxy-2-methyl-4H-chromen-4-one] | – | – | – | – | – | – | – | – | 101 to 500 | 0.01 to 15 | 2.74 | 56.7 | 21 | 103 | 112 | 51 to 100 | – | –
CN(c1ccc(-c2ccc(C#N)cc2O)nn1)[C@H]1C[C@@H]2CC[C@@H](N2)[C@H]1F [Compound 38B, 4-(6-(((1R,2R,3S,5S)-2-fluoro-8-azabicyclo[3.2.1]octan-3-yl)(methyl)amino)pyridazin-3-yl)-3-hydroxybenzonitrile] | 16 to 50 | 16 to 50 | 18.9 | 47.1 | 2 | 95 | 102 | – | – | – | – | – | – | – | – | – | 16 to 50 | –
CN(c1ccc(-c2ccc(-n3ccnn3)cc2O)nn1)[C@@H]1C[C@H]2CC[C@H](N2)[C@@H]1F [Compound 61A, 2-(6-(((1S,2S,3R,5R)-2-fluoro-8-azabicyclo[3.2.1]octan-3-yl)(methyl)amino)pyridazin-3-yl)-5-(1H-1,2,3-triazol-1-yl)phenol] | 16 to 50 | 0.01 to 15 | 4.29 | 60.3 | 14 | 91 | 88 | – | – | – | – | – | – | – | – | – | 16 to 50 | –
COc1cn(-c2ccc(-c3ccc(N(C)[C@@H]4C[C@H]5CC(F)(F)[C@@H](C4)N5)nn3)c(O)c2)cn1 [Compound 19A, 2-(6-(((1S,3R,5R)-6,6-difluoro-8-azabicyclo[3.2.1]octan-3-yl)(methyl)amino)pyridazin-3-yl)-5-(4-methoxy-1H-imidazol-1-yl)phenol] | 51 to 100 | 0.01 to 15 | 10.1 | 56.6 | 6 | 81 | 94 | – | – | – | – | – | – | – | – | – | 51 to 100 | –
CN(c1ccc(-c2ccc(-c3cnn(C)c3)cc2O)nn1)[C@H]1C[C@@H]2CCC[C@@H](N2)[C@H]1F [Compound 15B, 2-(6-(((1R,2R,3S,5S)-2-fluoro-9-azabicyclo[3.3.1]nonan-3-yl)(methyl)amino)pyridazin-3-yl)-5-(1-methyl-1H-pyrazol-4-yl)phenol] | 0.01 to 15 | 0.01 to 15 | 3.21 | 39.3 | 12 | 62 | 84 | – | – | – | – | – | – | – | – | – | 0.01 to 15 | –
CN(c1ccc(-c2cc3oc(=O)n(C)c3cc2O)nn1)[C@H]1C[C@@H]2CC[C@@H](N2)[C@H]1F (single isomer, unassigned) [Compound 79B] | 51 to 100 | 16 to 50 | 2.69 | 42.9 | 16 | 90 | 99 | – | – | – | – | – | – | – | – | – | 101 to 500 | –
CN(c1ccc(-c2ccc(-n3cnc(C#N)c3)cc2O)nn1)[C@@H]1C[C@H]2CCC[C@H](N2)[C@@H]1F [Compound 63A, 1-(4-(6-(((1S,2S,3R,5R)-2-fluoro-9-azabicyclo[3.3.1]nonan-3-yl)(methyl)amino)pyridazin-3-yl)-3-hydroxyphenyl)-1H-imidazole-4-carbonitrile] | 51 to 100 | 0.01 to 15 | 1.5 | 46 | 31 | 76 | 91 | – | – | – | – | – | – | – | – | – | 16 to 50 | –
CNC(=O)c1ccc(-c2ccc(N(C)[C@H]3C[C@@H]4CC[C@@H](N4)[C@H]3F)nn2)c(O)c1 (single isomer, unassigned) [Compound 77B] | 101 to 500 | 101 to 500 | 0.28 | 40.3 | 144 | 102 | 106 | – | – | – | – | – | – | – | – | – | 51 to 100 | –
CN(c1ccc(-c2ccc(-n3cnc(C#N)c3)cc2O)nn1)[C@H]1C[C@@H]2CC[C@@H](N2)[C@H]1F [Compound 69B, 1-(4-(6-(((1R,2R,3S,5S)-2-fluoro-8-azabicyclo[3.2.1]octan-3-yl)(methyl)amino)pyridazin-3-yl)-3-hydroxyphenyl)-1H-imidazole-4-carbonitrile] | 16 to 50 | 0.01 to 15 | 1.51 | 52.3 | 35 | 88 | 90 | – | – | – | – | – | – | – | – | – | 51 to 100 | –
CN(c1ccc(-c2cc3ncn(C)c(=O)c3cc2O)nn1)[C@H]1C[C@@H]2CC[C@H]([C@H]1F)N2C [Compound 101B, 7-(6-(((1R,2R,3S,5S)-2-fluoro-8-methyl-8-azabicyclo[3.2.1]octan-3-yl)(methyl)amino)pyridazin-3-yl)-6-hydroxy-3-methylquinazolin-4(3H)-one] | – | – | – | – | – | – | – | – | 51 to 100 | 0.01 to 15 | 2.41 | 59.1 | 24 | 118 | 119 | 51 to 100 | – | –
CN(c1ccc(-c2cc3ncn(CC(F)(F)F)c(=O)c3cc2O)nn1)[C@H]1C[C@@H]2CCC[C@@H](N2)[C@H]1F [Compound 58B, 7-(6-(((1R,2R,3S,5S)-2-fluoro-9-azabicyclo[3.3.1]nonan-3-yl)(methyl)amino)pyridazin-3-yl)-6-hydroxy-3-(2,2,2-trifluoroethyl)quinazolin-4(3H)-one] | – | 0.01 to 15 | 0.43 | 53.9 | 126 | 76 | 85 | – | – | – | – | – | – | – | – | – | 0.01 to 15 | E (501 ≤ E ≤ 10.000)
CN(c1ccc(-c2cc3nccnc3cc2O)nn1)[C@@H]1C[C@H]2CC[C@H](N2)[C@@H]1F [Compound 88A, 7-(6-(((1S,2S,3R,5R)-2-fluoro-8-azabicyclo[3.2.1]octan-3-yl)(methyl)amino)pyridazin-3-yl)quinoxalin-6-ol] | 51 to 100 | 16 to 50 | 4.84 | 45.7 | 9 | 85 | 99 | – | – | – | – | – | – | – | – | – | 101 to 500 | –
Cc1ccc(-c2ccc(-c3ccc(N(C)[C@@H]4C[C@H]5CC[C@H](N5)[C@@H]4F)nn3)c(O)c2)nn1 (single isomer, unassigned) [Compound 25A] | 101 to 500 | 0.01 to 15 | 1.79 | 55 | 31 | 99 | 99 | – | – | – | – | – | – | – | – | – | 101 to 500 | –
CN(c1ccc(-c2cc3c(=O)n(C)cnc3cc2O)nn1)[C@H]1C[C@@H]2CC[C@H]([C@H]1F)N2C [Compound 102B, 6-(6-(((1R,2R,3S,5S)-2-fluoro-8-methyl-8-azabicyclo[3.2.1]octan-3-yl)(methyl)amino)pyridazin-3-yl)-7-hydroxy-3-methylquinazolin-4(3H)-one] | – | – | – | – | – | – | – | – | 51 to 100 | 16 to 50 | 1.63 | 48.1 | 30 | 91 | 91 | 101 to 500 | – | –
